The supplement of paper PMC9938120

Key:
Assay in all cases: drug sensitivity score (DSS3, normalised partial AUC of % inhibition dose-response) (DSS (score)); higher = more sensitive (stronger inhibition of viability); extreme values may be limits of the assay
FMOC02_2 = patient-derived low-grade serous ovarian cancer cells; conditions: 72 h; library: FO5A; assay format: 2D, 384-well, CellTiter-Glo
In short: (§1)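 Cells were dispensed onto 384-well flat clear-bottom plates already holding compounds at five concentrations over a 10,000-fold range, using patient-derived ovarian cancer cells at passage under 10. Incubation lasted 72 h at 37 °C in 5% CO2, after which CellTiter-Glo viability data were processed in Breeze. Higher drug sensitivity scores, each a partial area under the percent-inhibition dose-response curve divided by the log of the upper asymptote, mean more sensitive cells.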

FMOC02_3 = patient-derived low-grade serous ovarian cancer cells; conditions: 72 h; library: FO5A; assay format: 2D, 384-well, CellTiter-Glo
In short: as §1

FMOC03 = patient-derived mucinous ovarian cancer cells; conditions: 72 h; library: FO5A; assay format: 2D, 384-well, CellTiter-Glo
In short: as §1

FMOC06 = patient-derived mucinous ovarian cancer cells; conditions: 72 h; library: FO5A; assay format: 2D, 384-well, CellTiter-Glo
In short: as §1

FMOC09 = patient-derived high-grade serous ovarian cancer cells; conditions: 72 h; library: FO5A; assay format: 2D, 384-well, CellTiter-Glo
In short: as §1

FMOC14 = patient-derived high-grade serous ovarian cancer cells; conditions: 72 h; library: FO5A; assay format: 2D, 384-well, CellTiter-Glo
In short: as §1

FMOC22 = patient-derived mucinous ovarian cancer cells; conditions: 72 h; library: FO5A; assay format: 2D, 384-well, CellTiter-Glo
In short: as §1

FMOC24 = patient-derived high-grade serous ovarian cancer cells; conditions: 72 h; library: FO5A; assay format: 2D, 384-well, CellTiter-Glo
In short: as §1

FMOC25_1 = patient-derived low-grade serous ovarian cancer cells; conditions: 72 h; library: FO4B; assay format: 2D, 384-well, CellTiter-Glo
In short: as §1

FMOC25_2 = patient-derived low-grade serous ovarian cancer cells; conditions: 72 h; library: FO5A; assay format: 2D, 384-well, CellTiter-Glo
In short: as §1

| Structure (SMILES) | drug sensitivity score (FMOC02_2) | drug sensitivity score (FMOC02_3) | drug sensitivity score (FMOC03) | drug sensitivity score (FMOC06) | drug sensitivity score (FMOC09) | drug sensitivity score (FMOC14) | drug sensitivity score (FMOC22) | drug sensitivity score (FMOC24) | drug sensitivity score (FMOC25_1) | drug sensitivity score (FMOC25_2) |
| --- | --- | --- | --- | --- | --- | --- | --- | --- | --- | --- |
| CC(C)(C)C[C@@H]1N[C@@H](C(=O)N[C@H]2CC[C@H](O)CC2)[C@H](c2cccc(Cl)c2F)[C@]12C(=O)Nc1cc(Cl)ccc12 | 10.3 | 17.9 | 3.1 | 3.3 | 1.6 | 1.6 | 3.5 | 3.4 | 9.9 | 8.4 |
| Nc1cc(C(F)(F)F)c(-c2cc(N3CCOCC3)nc(N3CCOCC3)n2)cn1 [Buparlisib] | 11.7 | 13.3 | 8.6 | 8.7 | 6.7 | 4.2 | 6.3 | 2.25 | 11.5 | 10.8 |
| O=C(O)C1(C(=O)O)CCC1.[NH2-].[NH2-].[Pt+2] [Carboplatin] | 4.9 | 5 | 0.6 | 1.3 | 9.1 | 4.9 | 2.8 | 8.3 | 1.3 | 2.8 |
| CCN(CC)Cc1ccc2cc(COC(=O)Nc3ccc(C(=O)NO)cc3)ccc2c1 [Givinostat] | 7.1 | 5.9 | 6.1 | 5.2 | 1.5 | 4.4 | 4.7 | 5.45 | 5.2 | 4 |
| Cc1cc2c(C(=O)NC[C@H](C)c3ccccc3)c(O)c(O)cc2c(O)c1-c1c(C)cc2c(C(=O)NC[C@H](C)c3ccccc3)c(O)c(O)cc2c1O [Sabutoclax] | 5.2 | 9.1 | 9.6 | 5.6 | 9.3 | 12.6 | 10.8 | 6.6 | 6.2 | 5.3 |
| CCc1cnn2c(NCc3ccc[n+]([O-])c3)cc(N3CCCC[C@H]3CCO)nc12 [Dinaciclib] | 22.1 | 25 | 16.4 | 20.2 | 10.3 | 18.5 | 13.1 | 18.8 | 17.6 | 28.3 |
| COc1c(C)cnc(Cn2cnc3c(Cl)nc(N)nc32)c1C [BIIB021] | 16.9 | 21.1 | 17.2 | 10 | 13.7 | 13.2 | 11.7 | 10.7 | 13 | 15.5 |
| CN(CC(=O)N(Cc1ccc(C2CCCCC2)cc1)c1ccc(C(=O)O)cc1)S(=O)(=O)c1c(F)c(F)c(F)c(F)c1F [SH-4-54] | 9.3 | 8.8 | 6.2 | 9 | 10.3 | 5.9 | 5.3 | 6.2 | 6.9 | 5.5 |
| CC(=O)OC[C@H]1O[C@@H]([S-])[C@H](OC(C)=O)[C@@H](OC(C)=O)[C@@H]1OC(C)=O.CCP(CC)CC.[Au+] [Auranofin] | 0 | 1.8 | 1.3 | 4.1 | 3.5 | 5.2 | 3.1 | 1.1 | 0 | 3.8 |
| CC[C@@H]1C(=O)N(C)c2cnc(Nc3ccc(C(=O)NC4CCN(C)CC4)cc3OC)nc2N1C1CCCC1 [BI 2536] | 6.7 | 9.3 | 5.2 | 2.1 | 9.1 | 0.4 | 5.1 | 2.25 | 5.8 | 7.3 |
| CCn1cc(-c2ccnc3[nH]c(-c4cccc(CN(C)C)c4)cc23)c(-c2ccc(NC(=O)N(C)C)cc2)n1 | 0 | 2.6 | 0 | 0 | 0 | 0 | 0.1 | 0.55 | 0 | 2.2 |
| CN1CCC(CNc2ccc3ncc(-c4cccc(OC(F)(F)F)c4)n3n2)CC1 [SGI-1776] | 9.2 | 8.8 | 6.1 | 6.5 | 4.5 | 5 | 5.9 | 8.05 | 7.4 | 7.4 |
| COc1ccc(-c2ccc3ncc4c(c3c2)n(-c2ccc(N3CCNCC3)c(C(F)(F)F)c2)c(=O)n4C)cn1 [NVP-BGT226] | 24.7 | 27 | 17.4 | 15.2 | 11.9 | 14.9 | 14.4 | 10.7 | 27.5 | 26.7 |
| CNC(=O)CN1CCC(Oc2cc3c(Nc4cccc(Cl)c4F)ncnc3cc2OC)CC1 [Sapitinib] | 14 | 13.8 | 14.7 | 0.3 | 10.4 | 4.2 | 0.9 | 0.2 | 9.4 | 10 |
| CCCCC(=O)OCC(=O)[C@]1(O)Cc2c(O)c3c(c(O)c2[C@@H](O[C@H]2C[C@H](NC(=O)C(F)(F)F)[C@H](O)[C@H](C)O2)C1)C(=O)c1c(OC)cccc1C3=O [Valrubicin] | 6.8 | 9.2 | 5.3 | 6.5 | 7.1 | 5.1 | 7.8 | 7 | 9.1 | 9 |
| CC(C)C[C@H](NC(=O)[C@H](CCc1ccccc1)NC(=O)CN1CCOCC1)C(=O)N[C@@H](Cc1ccccc1)C(=O)N[C@@H](CC(C)C)C(=O)[C@@]1(C)CO1 [Carfilzomib] | 18.7 | 24.6 | 18 | 22.4 | 21.6 | 23.6 | 20.1 | 27.4 | 21.6 | 25.5 |
| COc1ccc(C[C@H](NC(=O)[C@H](C)NC(=O)CN2CCOCC2)C(=O)N[C@@H](Cc2ccccc2)C(=O)C2(C)CO2)cc1 (stereo in doubt) [ONX-0914] | 12.5 | 19.3 | 16.5 | 16.9 | 12.8 | 14.1 | 14.9 | 20.9 | 16.4 | 18.8 |
| Cc1cc(Nc2cc(N3CCN(C)CC3)nc(Sc3ccc(NC(=O)C4CC4)cc3)n2)n[nH]1 [Tozasertib] | 5 | 5.7 | 2.2 | 3.5 | 4.7 | 0.6 | 2.9 | 0.65 | 2.6 | 3.6 |
| CCS(=O)(=O)c1cccc(-c2cc(C(=O)NC3CCN(C)CC3)c(C)c3[nH]c4ncc(C)cc4c23)c1 [TAK-901] | 1 | 5.3 | 1.2 | 2 | 7 | 0 | 1.2 | 1.15 | 2.2 | 5.7 |
| CCS(=O)(=O)N1CCN(c2ccc(Nc3ncc(C(N)=O)c(NC4CC4)n3)cc2)CC1 [Cerdulatinib] | 0 | 0 | 0 | 0 | 0 | 3.4 | 0 | 3.3 | 4 | 10.6 |
| O=C(NC1CCNCC1)c1n[nH]cc1NC(=O)c1c(Cl)cccc1Cl [AT7519] | 17.8 | 22.1 | 12.1 | 16.3 | 12.3 | 12.5 | 10 | 15.2 | 17.6 | 21.3 |
| CC(C)c1cc(-c2n[nH]c(=O)n2-c2ccc3c(ccn3C)c2)c(O)cc1O [Ganetespib] | 16.2 | 19.7 | 11.3 | 3.3 | 12.3 | 10.9 | 14.3 | 8.9 | 11.6 | 17.5 |
| Cc1cc(Nc2cc(N3CCN(C)CC3)nc(/C=C/c3ccccc3)n2)n[nH]1 [ENMD-2076] | 11.5 | 13.7 | 6.2 | 6.7 | 8.6 | 5.2 | 4.1 | 4.95 | 6.1 | 10.5 |
| CCCCc1nc2cc(/C=C/C(=O)NO)ccc2n1CCN(CC)CC [Pracinostat] | 13.3 | 13.3 | 12.3 | 12.7 | 5.8 | 12.4 | 8.7 | 14.8 | 11.6 | 10.7 |
| COc1ccc(-c2nc(N3CCOCC3)c3sc(CN(C)c4ncc(C(=O)NO)cn4)cc3n2)cn1 [CUDC-907] | 34.3 | 33.2 | 32.8 | 31.2 | 18.4 | 31.4 | 31.1 | 33.7 | 29.2 | 29.1 |
| CC[C@]1(O)C[C@H]2CN(CCc3c([nH]c4ccccc34)[C@@](C(=O)OC)(c3cc4c(cc3OC)N(C=O)[C@H]3[C@@](O)(C(=O)OC)[C@H](OC(C)=O)[C@]5(CC)C=CCN6CC[C@]43[C@@H]65)C2)C1 [Vincristine] | 4.7 | 15.4 | 6.2 | 3.4 | 12.5 | 0.3 | 5.9 | 5.05 | 9.4 | 13 |
| COC(=O)c1ccc2c(c1)NC(=O)/C2=C(\Nc1ccc(N(C)C(=O)CN2CCN(C)CC2)cc1)c1ccccc1 [Nintedanib] | 8.3 | 11.7 | 1.8 | 4.5 | 4.6 | 3.3 | 0.6 | 5.85 | 0 | 2.1 |
| CCc1cncnc1N1CCN(Cc2nc3ccc(C(F)(F)F)cc3[nH]2)CC1 | 3.9 | 5.3 | 0.8 | 0.5 | 0.1 | 1.3 | 1.3 | 5.2 | 1.3 | 6.2 |
| O=C1CN2Cc3c(ccc(Cl)c3Cl)N=C2N1 [Anagrelide] | 0 | 0 | 0 | 0.7 | 18.7 | 0 | 0 | 0 | 0 | 0 |
